Test results reported in patent US9738644B2, “Chemical compounds, compositions and methods for kinase modulation” (Infinity Pharmaceuticals, Inc., priority 2010, dated 2017).

Legend:
PI3K δ = target: T1, PI3K δ (Homo sapiens, UniProt O00329); assay: In vitro PI3K δ inhibition assay; format: biochemical
T1 construct: purchased Upstate
Description: (§1) Class I PI3-Ks can be either purchased (p110α/p85α, p110β/p85α, p110δ/p85α from Upstate, and p110γ from Sigma) or expressed as previously described (Knight et al., 2004). IC50 values are measured using either a standard TLC assay for lipid kinase activity (described below) or a high-throughput membrane capture assay. Kinase reactions are performed by preparing a reaction mixture containing kinase, inhibitor (2% DMSO final concentration), buffer (25 mM HEPES, pH 7.4, 10 mM MgCl2), and freshly sonicated phosphatidylinositol (100 μg/ml). Reactions are initiated by the addition of ATP containing 10 μCi of γ-32P-ATP to a final concentration of 10 or 100 μM and allowed to proceed for 5 minutes at room temperature. For TLC analysis, reactions are then terminated by the addition of 105 μl 1N HCl followed by 160 μl CHCl3:MeOH (1:1). The biphasic mixture is vortexed, briefly centrifuged, and the organic phase is transferred to a new tube using a gel loading pipette tip precoated with CHCl3. This extract is spotted on TLC plates and developed for 3-4 hours in a 65:35 solution of n-propanol:1M acetic acid. The TLC plates are then dried, exposed to a phosphorimager screen (Storm, Amersham), and quantitated. For each compound, kinase activity is measured at 10-12 inhibitor concentrations representing two-fold dilutions from the highest concentration tested (typically, 200 μM). […] Other commercial kits or systems for assaying PI3-K activities are available. The commercially available kits or systems can be used to screen for inhibitors and/or agonists of PI3-Ks including, but not limited to, PI 3-Kinase α, β, δ, and γ. An exemplary system is PI 3-Kinase (human) HTRF™ Assay from Upstate. […] Briefly, the assay is a time resolved FRET assay that indirectly measures PIP3 product formed by the activity of a PI3-K. The kinase reaction is performed in a microtiter plate (e.g., a 384 well microtiter plate). The total reaction volume is approximately 20 μl per well. In the first step, each well receives 2 μl of test compound in 20% dimethylsulphoxide resulting in a 2% DMSO final concentration. Next, approximately 14.5 μl of a kinase/PIP2 mixture (diluted in 1× reaction buffer) is added per well for a final concentration of 0.25-0.3 μg/ml kinase and 10 μM PIP2. The plate is sealed and incubated for 15 minutes at room temperature. To start the reaction, 3.5 μl of ATP (diluted in 1× reaction buffer) is added per well for a final concentration of 10 μM ATP. The plate is sealed and incubated for 1 hour at room temperature. The reaction is stopped by adding 5 μl of Stop Solution per well and then 5 μl of Detection Mix is added per well. The plate is sealed, incubated for 1 hour at room temperature, and then read on an appropriate plate reader. Data is analyzed and IC50s are generated using GraphPad Prism 5.

PI3K γ = target: T2, PI3K γ (Homo sapiens, UniProt P48736); assay: In vitro PI3K γ inhibition assay; format: biochemical
T2 construct: purchased Sigma
Description: as §1

PI3K α = target: T3, PI3K α (Homo sapiens, UniProt P42336); assay: In vitro PI3K α inhibition assay; format: biochemical
T3 construct: purchased Upstate
Description: (§2) Class I PI3-Ks can be either purchased (p110α/p85α, p110β/p85α, p110δ/p85α from Upstate, and p110γ from Sigma) or expressed as previously described (Knight et al., 2004). IC50 values are measured using either a standard TLC assay for lipid kinase activity (described below) or a high-throughput membrane capture assay. Kinase reactions are performed by preparing a reaction mixture containing kinase, inhibitor (2% DMSO final concentration), buffer (25 mM HEPES, pH 7.4, 10 mM MgCl2), and freshly sonicated phosphatidylinositol (100 μg/ml). Reactions are initiated by the addition of ATP containing 10 μCi of γ-32P-ATP to a final concentration of 10 or 100 μM and allowed to proceed for 5 minutes at room temperature. For TLC analysis, reactions are then terminated by the addition of 105 μl 1N HCl followed by 160 μl CHCl3:MeOH (1:1). The biphasic mixture is vortexed, briefly centrifuged, and the organic phase is transferred to a new tube using a gel loading pipette tip precoated with CHCl3. This extract is spotted on TLC plates and developed for 3-4 hours in a 65:35 solution of n-propanol:1M acetic acid. The TLC plates are then dried, exposed to a phosphorimager screen (Storm, Amersham), and quantitated. For each compound, kinase activity is measured at 10-12 inhibitor concentrations representing two-fold dilutions from the highest concentration tested (typically, 200 μM).
(§3) Other commercial kits or systems for assaying PI3-K activities are available. The commercially available kits or systems can be used to screen for inhibitors and/or agonists of PI3-Ks including, but not limited to, PI 3-Kinase α, β, δ, and γ. An exemplary system is PI 3-Kinase (human) HTRF™ Assay from Upstate. […] Briefly, the assay is a time resolved FRET assay that indirectly measures PIP3 product formed by the activity of a PI3-K. The kinase reaction is performed in a microtiter plate (e.g., a 384 well microtiter plate). The total reaction volume is approximately 20 μl per well. In the first step, each well receives 2 μl of test compound in 20% dimethylsulphoxide resulting in a 2% DMSO final concentration. Next, approximately 14.5 μl of a kinase/PIP2 mixture (diluted in 1× reaction buffer) is added per well for a final concentration of 0.25-0.3 μg/ml kinase and 10 μM PIP2. The plate is sealed and incubated for 15 minutes at room temperature. To start the reaction, 3.5 μl of ATP (diluted in 1× reaction buffer) is added per well for a final concentration of 10 μM ATP. The plate is sealed and incubated for 1 hour at room temperature. The reaction is stopped by adding 5 μl of Stop Solution per well and then 5 μl of Detection Mix is added per well. The plate is sealed, incubated for 1 hour at room temperature, and then read on an appropriate plate reader. Data is analyzed and IC50s are generated using GraphPad Prism 5.

PI3K β = target: T4, PI3K β (Homo sapiens, UniProt P42338); assay: In vitro PI3K β inhibition assay; format: biochemical
T4 construct: purchased Upstate
Description: as §2, §3

Balb/c splenic B cells = assay: B cell activation and proliferation assay (Alamar Blue); format: cell-based; details: Mus musculus, read-out: B cell proliferation EC50
Description: The ability of one or more subject compounds to inhibit B cell activation and proliferation is determined according to standard procedures known in the art. For example, an in vitro cellular proliferation assay is established that measures the metabolic activity of live cells. The assay is performed in a 96 well microtiter plate using Alamar Blue reduction. Balb/c splenic B cells are purified over a Ficoll-Paque™ PLUS gradient followed by magnetic cell separation using a MACS B cell Isolation Kit (Miletenyi). Cells are plated in 90 μl at 50,000 cells/well in B Cell Media (RPMI+10% FBS+Penn/Strep+50 μM bME+5 mM HEPES). A compound disclosed herein is diluted in B Cell Media and added in a 10 μl volume. Plates are incubated for 30 min at 37° C. and 5% CO2 (0.2% DMSO final concentration). A 50 μl B cell stimulation cocktail is then added containing either 10 μg/ml LPS or 5 μg/ml F(ab′)2 Donkey anti-mouse IgM plus 2 ng/ml recombinant mouse IL4 in B Cell Media. Plates are incubated for 72 hours at 37° C. and 5% CO2. A volume of 15 μL of Alamar Blue reagent is added to each well and plates are incubated for 5 hours at 37° C. and 5% CO2. Alamar Blue fluoresce is read at 560Ex/590Em, and IC50 or EC50 values are calculated using GraphPad Prism 5.

T3 sequence (P42336 whole entry): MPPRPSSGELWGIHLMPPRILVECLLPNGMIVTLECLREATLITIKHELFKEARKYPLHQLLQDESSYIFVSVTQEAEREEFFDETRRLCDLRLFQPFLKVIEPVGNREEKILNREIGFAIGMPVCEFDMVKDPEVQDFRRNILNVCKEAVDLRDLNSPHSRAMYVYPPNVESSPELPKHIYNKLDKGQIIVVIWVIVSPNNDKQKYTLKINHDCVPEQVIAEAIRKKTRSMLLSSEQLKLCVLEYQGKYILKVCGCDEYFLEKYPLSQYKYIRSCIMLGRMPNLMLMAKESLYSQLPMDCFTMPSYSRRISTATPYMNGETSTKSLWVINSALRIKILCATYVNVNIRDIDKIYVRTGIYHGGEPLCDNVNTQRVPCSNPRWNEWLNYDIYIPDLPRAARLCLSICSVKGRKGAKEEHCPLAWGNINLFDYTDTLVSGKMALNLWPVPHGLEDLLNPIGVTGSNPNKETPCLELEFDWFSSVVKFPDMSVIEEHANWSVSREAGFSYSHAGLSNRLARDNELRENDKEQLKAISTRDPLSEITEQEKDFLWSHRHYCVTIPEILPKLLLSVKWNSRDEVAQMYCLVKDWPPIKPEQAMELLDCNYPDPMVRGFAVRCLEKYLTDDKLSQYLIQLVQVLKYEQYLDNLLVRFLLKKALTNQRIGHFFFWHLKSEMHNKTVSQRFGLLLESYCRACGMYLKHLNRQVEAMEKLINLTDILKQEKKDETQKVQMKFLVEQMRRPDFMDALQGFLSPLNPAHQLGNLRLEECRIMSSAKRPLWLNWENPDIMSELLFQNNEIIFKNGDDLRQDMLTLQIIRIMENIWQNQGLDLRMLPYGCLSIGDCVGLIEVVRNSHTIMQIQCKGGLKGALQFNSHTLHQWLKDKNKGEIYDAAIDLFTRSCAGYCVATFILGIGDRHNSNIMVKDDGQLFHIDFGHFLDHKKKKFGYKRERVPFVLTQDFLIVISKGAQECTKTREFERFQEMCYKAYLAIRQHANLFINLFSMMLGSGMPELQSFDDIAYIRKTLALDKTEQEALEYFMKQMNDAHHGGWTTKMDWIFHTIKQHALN
T3 sequence (P27986 whole entry partner): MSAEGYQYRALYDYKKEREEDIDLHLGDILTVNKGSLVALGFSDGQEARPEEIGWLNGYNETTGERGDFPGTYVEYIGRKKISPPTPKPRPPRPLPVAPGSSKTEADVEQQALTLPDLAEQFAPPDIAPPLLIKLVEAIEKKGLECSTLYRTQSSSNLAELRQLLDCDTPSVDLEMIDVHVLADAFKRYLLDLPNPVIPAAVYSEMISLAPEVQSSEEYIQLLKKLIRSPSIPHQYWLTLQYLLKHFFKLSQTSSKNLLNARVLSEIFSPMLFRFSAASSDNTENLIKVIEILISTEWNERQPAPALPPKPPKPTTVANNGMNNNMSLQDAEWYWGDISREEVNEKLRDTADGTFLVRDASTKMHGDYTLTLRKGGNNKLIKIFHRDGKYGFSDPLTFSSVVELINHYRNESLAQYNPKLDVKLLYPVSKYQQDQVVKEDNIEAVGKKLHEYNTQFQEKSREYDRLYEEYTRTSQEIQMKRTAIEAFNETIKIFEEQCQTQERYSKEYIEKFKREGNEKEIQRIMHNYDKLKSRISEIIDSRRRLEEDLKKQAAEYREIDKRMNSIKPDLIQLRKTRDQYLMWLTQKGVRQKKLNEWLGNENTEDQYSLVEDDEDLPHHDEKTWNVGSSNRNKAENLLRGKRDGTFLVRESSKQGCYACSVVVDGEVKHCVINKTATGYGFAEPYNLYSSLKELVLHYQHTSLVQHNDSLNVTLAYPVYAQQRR
T2 sequence (P48736 whole entry): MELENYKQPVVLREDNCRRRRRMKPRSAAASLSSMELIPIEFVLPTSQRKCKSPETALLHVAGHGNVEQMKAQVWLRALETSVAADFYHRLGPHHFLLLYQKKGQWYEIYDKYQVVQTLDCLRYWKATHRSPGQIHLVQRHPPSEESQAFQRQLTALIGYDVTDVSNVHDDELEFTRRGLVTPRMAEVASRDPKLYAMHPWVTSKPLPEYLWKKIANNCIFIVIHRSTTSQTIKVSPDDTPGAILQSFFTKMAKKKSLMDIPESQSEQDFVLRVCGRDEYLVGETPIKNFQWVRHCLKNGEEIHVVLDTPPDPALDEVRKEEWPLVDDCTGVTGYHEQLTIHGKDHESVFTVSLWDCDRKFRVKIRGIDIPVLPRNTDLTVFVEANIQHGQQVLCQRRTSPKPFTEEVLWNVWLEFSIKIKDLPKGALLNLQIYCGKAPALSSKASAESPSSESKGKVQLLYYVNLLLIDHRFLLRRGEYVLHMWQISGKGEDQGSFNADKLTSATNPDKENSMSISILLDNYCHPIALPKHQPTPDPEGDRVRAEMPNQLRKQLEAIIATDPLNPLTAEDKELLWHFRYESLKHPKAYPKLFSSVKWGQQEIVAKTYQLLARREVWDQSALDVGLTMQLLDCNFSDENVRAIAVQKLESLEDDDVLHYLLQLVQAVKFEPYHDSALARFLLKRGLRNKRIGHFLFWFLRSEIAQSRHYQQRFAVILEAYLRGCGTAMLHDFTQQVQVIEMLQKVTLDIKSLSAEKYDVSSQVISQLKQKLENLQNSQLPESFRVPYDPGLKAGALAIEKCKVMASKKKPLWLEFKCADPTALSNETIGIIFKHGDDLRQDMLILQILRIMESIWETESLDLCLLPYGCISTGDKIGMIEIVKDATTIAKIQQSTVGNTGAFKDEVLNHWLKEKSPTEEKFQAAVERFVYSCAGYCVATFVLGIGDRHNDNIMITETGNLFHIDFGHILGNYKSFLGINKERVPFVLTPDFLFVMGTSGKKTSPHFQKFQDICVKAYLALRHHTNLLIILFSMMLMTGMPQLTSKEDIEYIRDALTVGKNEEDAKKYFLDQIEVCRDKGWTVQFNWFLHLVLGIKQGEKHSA
T1 sequence (O00329 whole entry): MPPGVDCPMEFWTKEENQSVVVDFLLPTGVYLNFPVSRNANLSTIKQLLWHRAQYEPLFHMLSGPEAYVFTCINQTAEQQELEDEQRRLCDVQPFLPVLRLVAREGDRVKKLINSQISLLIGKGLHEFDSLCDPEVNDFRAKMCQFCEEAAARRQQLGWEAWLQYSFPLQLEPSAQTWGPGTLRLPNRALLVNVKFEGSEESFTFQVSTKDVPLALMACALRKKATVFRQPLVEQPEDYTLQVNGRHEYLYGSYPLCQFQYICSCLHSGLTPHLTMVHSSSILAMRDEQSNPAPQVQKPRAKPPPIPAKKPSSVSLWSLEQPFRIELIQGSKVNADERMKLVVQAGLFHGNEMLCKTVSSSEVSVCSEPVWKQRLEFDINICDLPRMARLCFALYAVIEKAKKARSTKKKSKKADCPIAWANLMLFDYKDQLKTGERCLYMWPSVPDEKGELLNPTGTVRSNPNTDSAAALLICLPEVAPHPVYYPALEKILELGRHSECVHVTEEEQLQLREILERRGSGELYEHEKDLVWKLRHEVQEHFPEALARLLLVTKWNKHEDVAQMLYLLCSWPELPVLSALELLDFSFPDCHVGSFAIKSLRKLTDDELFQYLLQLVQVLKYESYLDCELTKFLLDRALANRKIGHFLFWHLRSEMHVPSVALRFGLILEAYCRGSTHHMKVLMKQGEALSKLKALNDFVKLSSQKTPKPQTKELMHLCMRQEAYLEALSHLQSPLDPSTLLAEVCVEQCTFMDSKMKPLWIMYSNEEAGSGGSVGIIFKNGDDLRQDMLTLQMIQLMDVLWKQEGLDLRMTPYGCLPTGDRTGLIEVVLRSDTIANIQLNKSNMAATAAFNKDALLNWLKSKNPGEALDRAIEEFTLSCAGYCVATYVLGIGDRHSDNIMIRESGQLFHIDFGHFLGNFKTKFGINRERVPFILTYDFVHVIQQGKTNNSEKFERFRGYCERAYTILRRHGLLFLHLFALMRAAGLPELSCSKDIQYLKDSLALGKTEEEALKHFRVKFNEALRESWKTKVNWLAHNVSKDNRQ
T1 sequence (P27986 whole entry partner): as the sequence (P27986 whole entry partner) above
T4 sequence (P42338 whole entry): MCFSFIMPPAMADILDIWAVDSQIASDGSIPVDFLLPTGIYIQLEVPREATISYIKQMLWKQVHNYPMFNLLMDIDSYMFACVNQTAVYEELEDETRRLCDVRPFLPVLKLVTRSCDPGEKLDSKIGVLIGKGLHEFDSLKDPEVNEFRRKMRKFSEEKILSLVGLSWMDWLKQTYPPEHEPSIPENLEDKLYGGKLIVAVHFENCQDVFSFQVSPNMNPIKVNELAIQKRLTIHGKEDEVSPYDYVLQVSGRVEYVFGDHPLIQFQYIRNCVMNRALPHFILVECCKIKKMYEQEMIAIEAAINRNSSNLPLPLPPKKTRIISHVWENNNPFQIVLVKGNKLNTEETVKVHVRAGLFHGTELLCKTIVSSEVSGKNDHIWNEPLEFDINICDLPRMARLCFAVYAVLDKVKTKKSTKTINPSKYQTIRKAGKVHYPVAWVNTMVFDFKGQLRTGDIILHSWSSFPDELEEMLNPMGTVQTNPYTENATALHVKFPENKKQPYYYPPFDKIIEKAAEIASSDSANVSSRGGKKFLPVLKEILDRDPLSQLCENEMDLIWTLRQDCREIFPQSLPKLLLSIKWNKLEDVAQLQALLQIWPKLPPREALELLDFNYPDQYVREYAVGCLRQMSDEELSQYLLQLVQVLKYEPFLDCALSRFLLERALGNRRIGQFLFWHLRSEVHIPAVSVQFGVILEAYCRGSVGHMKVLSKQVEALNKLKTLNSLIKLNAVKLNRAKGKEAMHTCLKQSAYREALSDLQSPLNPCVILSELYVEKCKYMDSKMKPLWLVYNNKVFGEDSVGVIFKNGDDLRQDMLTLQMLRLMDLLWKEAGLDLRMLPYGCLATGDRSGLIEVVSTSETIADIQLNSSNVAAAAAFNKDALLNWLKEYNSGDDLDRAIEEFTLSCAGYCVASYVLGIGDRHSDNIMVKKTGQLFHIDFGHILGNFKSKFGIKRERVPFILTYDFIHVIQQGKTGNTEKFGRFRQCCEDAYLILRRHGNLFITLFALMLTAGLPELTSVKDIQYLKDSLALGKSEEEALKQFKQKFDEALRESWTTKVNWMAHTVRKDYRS
T4 sequence (P27986 whole entry partner): as the sequence (P27986 whole entry partner) above

IC50 (PI3K δ) [nM]	IC50 (PI3K γ) [nM]	IC50 (PI3K α) [nM]	IC50 (PI3K β) [nM]	Compound	EC50 (Balb/c splenic B cells) [µM]
< 1000	< 1000	> 10000	> 10000	C[C@@H](Nc1ncnc2[nH]cnc12)c1cc2cccc(N3CCOCC3)c2c(=O)n1-c1ccccc1 (stereo in doubt) [Compound 39]	–
< 1000	< 10000	> 10000	> 10000	C[C@@H](Nc1ncnc2[nH]cnc12)c1cc2cccc(NC3CCOCC3)c2c(=O)n1-c1ccccc1 (stereo in doubt) [Compound 40]	–
–	–	< 10000	–	Cc1ccc(-c2cccc3cc([C@H](C)Nc4ncnc5[nH]cnc45)n(-c4ccccc4)c(=O)c23)cn1 [Compound 27]	< 0.1
–	< 10000	–	–	Cc1cnn(-c2cccc3cc([C@H](C)Nc4ncnc5[nH]cnc45)n(-c4ccccc4)c(=O)c23)c1 [Compound 30]	< 1
–	< 10000	–	–	Cc1ccc(-c2cccc3cc([C@H](C)Nc4ncnc(N)n4)n(-c4ccccc4)c(=O)c23)cn1 [Compound 34]	< 1
–	–	–	< 10000	Cc1ccc(-c2cccc3cc([C@H](C)Nc4nc(N)nc5[nH]cnc45)n(-c4ccccc4)c(=O)c23)cn1 [Compound 37]	< 0.1
–	–	–	< 10000	C[C@H](Nc1nc(N)nc2[nH]cnc12)c1cc2cccc(-c3cccnc3)c2c(=O)n1-c1ccccc1 [Compound 38]	–
–	–	–	< 10000	Cc1cc(-c2cccc3cc([C@H](C)Nc4ncnc5[nH]cnc45)n(-c4ccccc4)c(=O)c23)ccn1 [Compound 41]	< 0.1
–	–	< 10000	–	C[C@H](Nc1ncnc2[nH]cnc12)c1cc2cccc(-c3cnn(C)c3)c2c(=O)n1-c1cccc(F)c1 [Compound 45]	< 0.1
< 10000	–	–	–	C[C@H](Nc1ncnc2[nH]cnc12)c1cc2cccc(-c3cnn(C)c3)c2c(=O)[nH]1 [Compound 50]	–
–	–	< 10000	–	C[C@H](Nc1ncnn2ccnc12)c1cc2cccc(-c3cnn(C)c3)c2c(=O)n1-c1ccccc1 [Compound 52]	< 0.1
< 10000	–	–	–	C[C@H](Nc1ncnn2cncc12)c1cc2cccc(-c3cnn(C)c3)c2c(=O)n1-c1ccccc1 [Compound 54]	–
–	–	–	< 10000	C[C@H](Nc1ncnc2[nH]cc(C#N)c12)c1cc2cccc(-c3cnn(C)c3)c2c(=O)n1-c1ccccc1 [Compound 56]	< 0.1
–	–	< 10000	< 10000	C[C@H](Nc1ncnc2[nH]cc(C(N)=O)c12)c1cc2cccc(-c3cnn(C)c3)c2c(=O)n1-c1ccccc1 [Compound 58]	–
–	–	< 10000	–	C[C@H](Nc1nc(N)ncc1C#N)c1cc2cccc(-c3cnn(C)c3)c2c(=O)n1C1CC1 [Compound 72]	–
–	–	< 10000	–	C[C@H](Nc1ncnc(N)c1C#N)c1cc2cccc(-c3cnn(C)c3)c2c(=O)n1-c1ccccc1 [Compound 73]	–

More lines, now with the values behind:

Compound	IC50 (PI3K δ) [nM]	IC50 (PI3K γ) [nM]	IC50 (PI3K α) [nM]	IC50 (PI3K β) [nM]	EC50 (Balb/c splenic B cells) [µM]
C[C@H](Nc1ncnc2[nH]cnc12)c1cc2cccc(N3CCCC3)c2c(=O)n1-c1ccccc1 [Compound 4, (S)-3-(1-((9H-purin-6-yl)amino)ethyl)-2-phenyl-8-(pyrrolidin-1-yl)isoquinolin-1 (2H)-one]	< 10000	< 10000	–	–	< 1
C[C@H](Nc1ncnc2[nH]cnc12)c1cc2cccc(N3CCN(C)CC3)c2c(=O)n1-c1ccccc1 [Compound 5, (S)-3-(1-((9H-purin-6-yl)amino)ethyl)-8-(4-methylpiperazin-1-yl)-2-phenylisoquinolin-1(2H)-one]	–	–	–	–	< 0.1
C[C@H](Nc1ncnc2[nH]cnc12)c1cc2cccc(-n3cccn3)c2c(=O)n1-c1ccccc1 [Compound 29]	–	< 10000	–	–	< 1
Cc1cn(-c2cccc3cc([C@H](C)Nc4ncnc5[nH]cnc45)n(-c4ccccc4)c(=O)c23)cn1 [Compound 31]	–	< 10000	–	–	< 0.1
C[C@H](Nc1ncnc(N)n1)c1cc2cccc(-c3cnn(C)c3)c2c(=O)n1-c1ccccc1 [Compound 33, 3-((S)-1-(4-amino-1,3,5-triazin-2-ylamino)ethyl)-8-(1-methyl-1H-pyrazol-4-yl)-2-phenylisoquinolin-1(2H)-one]	–	< 10000	–	–	< 0.1
C[C@H](Nc1nc(N)nc2[nH]cnc12)c1cc2cccc(-c3cnn(C)c3)c2c(=O)n1-c1ccccc1 [Compound 36]	–	–	–	< 10000	< 0.1
C[C@H](Nc1ncnc2[nH]cnc12)c1cc2cccc(-c3cccnc3)c2c(=O)[nH]1 [Compound 49]	–	–	–	–	< 0.1
C[C@H](Nc1ncnc2[nH]cc(F)c12)c1cc2cccc(-c3cnn(C)c3)c2c(=O)n1C1CC1 [Compound 62]	–	–	< 10000	< 10000	< 0.1
C[C@H](Nc1nc(N)ncc1C(F)(F)F)c1cc2cccc(-c3cnn(C)c3)c2c(=O)n1C1CC1 [Compound 67]	–	–	–	–	< 0.1
C[C@H](Nc1nc(N)ncc1C(F)(F)F)c1cc2cccc(-c3cnn(C)c3)c2c(=O)n1-c1ccccc1 [Compound 68]	–	–	–	–	< 0.1
COc1ncc(-c2cccc3cc([C@H](C)Nc4ncnc5[nH]cnc45)n(-c4ccccc4)c(=O)c23)cn1 [Compound 76]	–	< 10000	< 10000	–	–
